In patent US10293016B2, “Use of instant asparagus powder in food, medicine and health food” (Q[…] DEVELOPMENT CO., LTD, priority 2013, dated 2019):

Assays:
[1] = system: Neurotransmitter in Hippocampus of Rat; assay: CSM test, level of neurotransmitter in hippocampus; type: in vivo; conditions: dosage 3 mg/Kg
From the text: (§1) The chronic emotional stress-response model takes as an emotional stress-response resource an uncertain stimulation of drinking by an empty bottle, so as to investigate the influence which the emotional stress of 14 days exerts on the behaviors, and neuroendocrine and immune functions of the rats.
After adaptation for one week, the rats were randomly grouped. Except the normal group, the model groups were fed in individual cages and subjected to the uncertain stimulation of drinking by an empty bottle to establish the anxiety stress models. The specific method is as follows: the training of timely feeding water lasts for 7 days, that is, water was being given to the animals for 10 minutes every day at 9:00-9:10 and 17:00-17:10, and at other times, the water bottles were taken away, without water given. After the period of timely feeding water was ended, the stress-response experiment started, wherein the uncertain stimulation of the empty bottle was given once or twice a day in the above two periods of time for two weeks. The normal group was not subjected to any treatment, and was fed with water and food freely. The behaviors observed included attacking (biting or attacking the empty bottle and the cage), exploratory (moving around and visiting the place where the water bottle was located), and grooming behaviors (combing fur and washing face). The specific method was: the 10 minutes of the empty bottle stimulation was equally divided into 10 periods of time, the above-mentioned three types of behaviors of each rat were recorded in each period of time, wherein it was marked as “1” if the behavior appears, otherwise it was marked as “0”. The total score obtained in the observation within 10 minutes was between 0 and 10. […] The average score of the first 3 days and the last 3 days of the 14 observation days was used for statistical analysis. […]
(§2) The following endocrine levels were detected in the test: (1) plasma cortisol concentration, (2) catecholamine level, (3) 5-hydroxytryptamine level.

Mouse [2] = assay: Chronic emotional stress-response model (CSM) test, behaviors; type: in vivo, rat; conditions: CSM empty bottle stimulation, dosage 3 mg/Kg, n=10
Mouse [3] = assay: Elevated plus maze model (EPM) test; type: in vivo
From the text: The elevated plus maze has been widely used in anxiety experiments of the small rodent. This system is used to detect the situation of decreasing animals' inherent aversion to a high position and a open field, after using the anxiety drug. The rodent (e.g. rat, mouse), which have the exploratory behavior, will actively explore the open arms after placed in the elevated plus maze, but fear the high and open environment in the open arms. The antianxiety drug increases the open-arm exploratory activities, while the anxiety drug has the opposite effect.
The elevated plus maze has a pair of open arms and a pair of closed arms. The animal, after a period of time of adaptation, is rapidly placed in the central platform of the EPM in such a way that its head directly faces one of the open arms. A tracking camera is used to record following: (1) times of entering the open arm (open arm entry, OE) within 5 minutes, wherein it is considered as one time of entering an open arm when all the four paws of the rat have entered any open arm, and meanwhile this entry activity is finished when one paw completely withdraws from this arm; (2) duration of staying in an open arm (open arm time, OT) within 5 minutes, wherein the unit of the duration of staying in an open arm is “second”; (3) times of entering a closed arm (close arm entry, CE) within 5 minutes, wherein it is considered as one time of entering a closed arm when all the four paws of the rat have entered any closed arm; (4) duration of staying in a closed arm (close arm entry, CT) within 5 minutes, wherein the unit of duration of staying in a closed arm is “second”. The following is calculated from (1)-(4), respectively: […]
(1) the total number of the times of the open arm entry and the closed arm entry (OE+CE): representing the motion vitality of the rat;
(2) the ratio of the times of the open arm entry (OE %); the times of the open arm entry/(OE+CE)×100%;
(3) the ratio of the duration of staying in the open arms (OT %), i.e. the duration of staying in the open arms/(OT+CT)×100%. Each rat is tested for 5 minutes. OE % and OT % represent the indices of the antianxiety effect.

[4] = system: Neurotransmitter in Serum of Rat; assay: CSM test, level of neurotransmitter in serum; type: in vivo; conditions: dosage 3 mg/Kg
From the text: as §1
After adaptation for one week, the rats were randomly grouped. Except the normal group, the model groups were fed in individual cages and subjected to the uncertain stimulation of drinking by an empty bottle to establish the anxiety stress models. The specific method is as follows: the training of timely feeding water lasts for 7 days, that is, water was being given to the animals for 10 minutes every day at 9:00-9:10 and 17:00-17:10, and at other times, the water bottles were taken away, without water given. After the period of timely feeding water was ended, the stress-response experiment started, wherein the uncertain stimulation of the empty bottle was given once or twice a day in the above two periods of time for two weeks. The normal group was not subjected to any treatment, and was fed with water and food freely. The behaviors observed included attacking (biting or attacking the empty bottle and the cage), exploratory (moving around and visiting the place where the water bottle was located), and grooming behaviors (combing fur and washing face). The specific method was: the 10 minutes of the empty bottle stimulation was equally divided into 10 periods of time, the above-mentioned three types of behaviors of each rat were recorded in each period of time, wherein it was marked as “1” if the behavior appears, otherwise it was marked as “0”. The total score obtained in the observation within 10 minutes was between 0 and 10. […] The average score of the first 3 days and the last 3 days of the 14 observation days was used for statistical analysis. The samples were gathered when the experiment was ended to detect the neuroendocrine and immune indices.
The normal control group was not subjected to any treatment; all the other groups were subjected to the stimulation.
as §2

Mouse [5] = assay: Analysis of times of locomotor activities; type: in vivo
From the text: The condition of the locomotor activity of an animal reflects the functional status of its central nervous system. The central stimulant drug can prominently increase the locomotor activity but decrease the exploratory behavior, and a certain dosage of antipsychotic drug can decrease the exploratory behavior without influencing the locomotor activity. A YLS-1A multi-functional mouse locomotor activity recorder is used to record the situation of locomotor activity of the mouse at different points of time after drug administration.

CN1C(=O)CN=C(c2ccccc2)c2cc(Cl)ccc21 [DZP, diazepam]
NE (norepinephrine) ([1]; n=10, negative control 0.104 ± 0.048): 0.080 ± 0.053 pg/mL
Dopamine ([1]; n=10, negative control 9.542 ± .93): 11.38 ± 4.33 ng/mL
NA ([1]; n=10, negative control 40.97 ± 13.25): 37.22 ± 10.05 pg/mL
Grooming Behavior (%) (Mouse [2]; negative control 2.38 ± 1.16): 1.78 ± 1.06%
Exploratory Behavior (%) (Mouse [2]; negative control 2.44 ± 0.88): 1.09 ± 0.52%
Attacking Behavior (%) (Mouse [2]; negative control 2.56 ± 2.09): 0.69 ± 0.52%
OE + CE (times) (Mouse [3]; EPM 5 minutes, dosage 3 mg/Kg, n=10, mean±SD, negative control 10.8 ± 3.9): 12.9 ± 5.2 times
OT (%) (Mouse [3]; EPM 5 minutes, dosage 3 mg/Kg, n=10, negative control 20.1 ± 4.5, p<0.05): 42.3 ± 5.7 %
OE (%) (Mouse [3]; EPM 5 minutes, dosage 3 mg/Kg, n=10, negative control 22.8 ± 5.9, p<0.05): 40.9 ± 5.2 %
values of OT % and OE % and total number of the times of entering arms (in words) (Mouse [3]; EPM, with the dosage of administration): can increase the values of OT % and OE % without increasing the total number of the times of entering arms
5-HT ([4]; n=10, negative control 0.86 ± 0.15, p<0.05): 1.12 ± 0.13 ng/mL
NE ([4]; n=10, negative control 1.15 ± 0.16): 1.00 ± 0.13 pg/mL
DA ([4]; n=10, negative control 5.45 ± 0.76): 6.00 ± 1.70 ng/mL
NA ([4]; n=10, negative control 15.08 ± 0.71): 14.67 ± 0.36 pg/mL
COR (cortisol) ([4]; n=10, negative control 49.94 ± 7.26, p<0.05): 28.94 ± 6.36 ng/mL
Times of Locomotor Activity 15-20 min (times) (Mouse [5]; 15-20 min after administration, dosage 3 mg/Kg, n=10, negative control 86 ± 35): 48 ± 46 times
Times of Locomotor Activity 30-35 min (times) (Mouse [5]; 30-35 min after administration, dosage 3 mg/Kg, n=10, negative control 64 ± 15, p<0.05): 32 ± 16 times
Times of Locomotor Activity 60-65 min (times) (Mouse [5]; 60-65 min after administration, dosage 3 mg/Kg, n=10, negative control 53 ± 9, p<0.05): 24 ± 6 times
times of locomotor activities of the mouse (in words) (Mouse [5]; with the dosage of administration): prominently reduce the times of locomotor activities of the mouse at the two periods of time, namely, 30 minutes and 60 minutes
